Measurements from ChEMBL document CHEMBL5614376, “Discovery of MT-1207: A Novel, Potent Multitarget Inhibitor as a Promising Clinical Candidate for the Treatment of Hypertension” (J Med Chem, 2024).
Active and inactive are the calls of the source. The rule behind the calls is not given here.

Assays:
[1] = Plasma protein binding in Sprague-Dawley rat at 1 uM incubated for 30 mins; assay type: ADME, cell-free; conditions: read-out: PPB (converted)
[2] = Tmax in male Sprague-Dawley rat at 10 mg/kg, po qd treated for 13 weeks consecutively measured after recovery period on day 91 by UP/LC/MS/MS analysis; assay type: ADME, organism-based; conditions: in vivo, time 91 day
Rattus norvegicus [3] = assay: Effect on postural hypotension in Sprague-Dawley rat assessed as change in systolic blood pressure at 2.5 mg/kg, po treated for >30 mins followed by induction of postural hypotension measured 5 secs after postural change (reference value: 126 +/- 12 mmHg); assay type: functional; conditions: time > 30.08 min, 0.5013 h
[4] = Half life in Sprague-Dawley rat at 9 mg/kg, po measured for 24 hrs by UPLC/MS/MS analysis; assay type: ADME, organism-based; conditions: in vivo
[5] = molecular target: T1, 5-hydroxytryptamine receptor 2A (Homo sapiens, UniProt P28223); assay: Displacement of [3H]Ketanserin from recombinant human 5-HT2A receptor extracted from CHO cell membrane at 1 nM incubated for 60 mins by radioligand binding assay relative to control; assay type: cell membranes; conditions: filed as antagonist
[6] = Tmax in male Sprague-Dawley rat at 30 mg/kg, po measured on day 1 by UP/LC/MS/MS analysis; assay type: ADME, organism-based; conditions: in vivo, time 1 day
[7] = Apparent oral clearance in Sprague-Dawley rat at 1 mg/kg, po measured for 24 hrs by UPLC/MS/MS analysis; assay type: ADME, organism-based; conditions: in vivo
[8] = Plasma protein binding in Cynomolgus monkey at 1 uM incubated for 30 mins; assay type: ADME, cell-free, Macaca fascicularis; conditions: read-out: PPB (converted)
[9] = AUC (0 to t) in female Sprague-Dawley rat at 100 mg/kg, po qd treated for 13 weeks consecutively measured after recovery period on day 91 by UP/LC/MS/MS analysis; assay type: ADME, organism-based; conditions: in vivo, time 91 day
[10] = Tmax in female Sprague-Dawley rat at 30 mg/kg, po qd treated for 13 weeks consecutively measured after recovery period on day 91 by UP/LC/MS/MS analysis; assay type: ADME, organism-based; conditions: in vivo, time 91 day
[11] = AUC (0 to t) in female Sprague-Dawley rat at 10 mg/kg, po measured on day 1 by UP/LC/MS/MS analysis; assay type: ADME, organism-based; conditions: in vivo, time 1 day
Rattus norvegicus [12] = assay: Effect on postural hypotension in Sprague-Dawley rat assessed as change in systolic blood pressure at 5 mg/kg, po treated for >30 mins followed by induction of postural hypotension measured 3 secs after postural change (reference value: 124 +/- 10 mmHg); assay type: functional; conditions: time > 30.05 min, 0.5008 h
[13] = Toxicity in Sprague-Dawley rat at 10 to 100 mg/kg, po qd treated for 13 weeks; assay type: organism-based; conditions: in vivo, dose 10-100 mg/kg
[14] = molecular target: T1, 5-hydroxytryptamine receptor 2A; assay: Displacement of [3H]Ketanserin from recombinant human 5-HT2A receptor extracted from CHO cell membrane at 100 nM incubated for 60 mins by radioligand binding assay relative to control; assay type: cell membranes; conditions: filed as antagonist
[15] = Plasma protein binding in Beagle dog at 10 uM incubated for 30 mins; assay type: ADME, cell-free, Canis lupus familiaris; conditions: read-out: PPB (converted)
[16] = Toxicity in male Sprague-Dawley rat assessed as reduction in body weight at 30 mg/kg, po qd treated for 11 days consecutively; assay type: organism-based; parameters: scale not given: the % may be the effect or the level left; conditions: in vivo, 264 h, time 11 day
Rattus norvegicus [17] = assay: Effect on postural hypotension in Sprague-Dawley rat assessed as change in systolic blood pressure at 10 mg/kg, po treated for >30 mins followed by induction of postural hypotension measured 3 secs after postural change (reference value: 124 +/- 10 mmHg); assay type: functional; conditions: time > 30.05 min, 0.5008 h
[18] = Apparent oral clearance in Sprague-Dawley rat at 1 mg/kg, iv measured for 24 hrs by UPLC/MS/MS analysis; assay type: ADME, organism-based; conditions: in vivo
Rattus norvegicus [19] = assay: Effect on serum urea level in 2K2C renovascular hypertensive Sprague-Dawley rat model at 10 mg/kg, po measured after 9 weeks by biochemical analysis; assay type: functional, organism-based
[20] = AUC (0 to t) in Sprague-Dawley rat at 9 mg/kg, po measured for 24 hrs by UPLC/MS/MS analysis; assay type: ADME, organism-based; conditions: in vivo
Rattus norvegicus [21] = assay: Effect on postural hypotension in Sprague-Dawley rat assessed as change in systolic blood pressure at 10 mg/kg, po treated for >30 mins followed by induction of postural hypotension measured 60 secs after postural change (reference value: 127 +/- 10 mmHg); assay type: functional; conditions: time > 31 min
Rattus norvegicus [22] = assay: Effect on postural hypotension in Sprague-Dawley rat assessed as change in systolic blood pressure at 2.5 mg/kg, po treated for >30 mins followed by induction of postural hypotension measured 20 secs after postural change (reference value: 129 +/- 11 mmHg); assay type: functional; conditions: time > 30.33 min, 0.5055 h
[23] = Plasma protein binding in human at 10 uM incubated for 30 mins; assay type: ADME, cell-free; conditions: read-out: PPB (converted)
[24] = Metabolic stability in macaque liver microsomes assessed as drug metabolism at 10 umol/L incubated upto 120 mins in presence of NADPH by LC-MS/MS analysis; assay type: ADME, Microsome; conditions: macaca, 2 h, 10 µM, dose 10 µmol/L
[25] = Tmax in Sprague-Dawley rat at 9 mg/kg, po measured for 24 hrs by UPLC/MS/MS analysis; assay type: ADME, organism-based; conditions: in vivo
[26] = Apparent volume of distribution during terminal phase in Sprague-Dawley rat at 9 mg/kg, po measured for 24 hrs by UPLC/MS/MS analysis; assay type: ADME, organism-based; conditions: in vivo, read-out: Vz/F
[27] = AUC (0 to t) in male Sprague-Dawley rat at 10 mg/kg, po measured on day 1 by UP/LC/MS/MS analysis; assay type: ADME, organism-based; conditions: in vivo, time 1 day
Rattus norvegicus [28] = assay: Effect on postural hypotension in Sprague-Dawley rat assessed as change in systolic blood pressure at 2.5 mg/kg, po treated for >30 mins followed by induction of postural hypotension measured 10 secs after postural change (reference value: 127 +/- 12 mmHg); assay type: functional; conditions: time > 30.17 min, 0.5028 h
[29] = Cmax in female Sprague-Dawley rat at 100 mg/kg, po measured on day 1 by UP/LC/MS/MS analysis; assay type: ADME, organism-based; conditions: in vivo, time 1 day
[30] = Toxicity in Sprague-Dawley rat assessed as change in body weight at 100 mg/kg, po qd treated for 13 weeks consecutively measured post-cessation of treatment; assay type: organism-based; conditions: in vivo, 2184 h
[31] = Metabolic stability in macaque plasma assessed as enzymatic hydrolysis at 50 to 10000 ng/ml incubated upto 120 mins; assay type: ADME, cell-free; conditions: macaca, 2 h, dose 50-10000 ng/ml
[32] = AUC (0 to t) in male Sprague-Dawley rat at 30 mg/kg, po measured on day 1 by UP/LC/MS/MS analysis; assay type: ADME, organism-based; conditions: in vivo, time 1 day
[33] = AUC (0 to t) in male Sprague-Dawley rat at 100 mg/kg, po qd treated for 13 weeks consecutively measured after recovery period on day 91 by UP/LC/MS/MS analysis; assay type: ADME, organism-based; conditions: in vivo, time 91 day
[34] = Metabolic stability in rat liver microsomes assessed as compound remaining at 10 umol/L incubated upto 120 mins in presence of NADPH by LC-MS/MS analysis; assay type: ADME, Microsome; conditions: dose 10 µmol/L, read-out: Stability
[35] = Toxicity in Sprague-Dawley rat assessed as notable drug-related change at 10 to 100 mg/kg, po qd treated for 13 weeks consecutively measured after 4 week recovery period; assay type: organism-based; conditions: in vivo, 2856 h, dose 10-100 mg/kg, time 17 weeks

T1 sequence (P28223 whole entry): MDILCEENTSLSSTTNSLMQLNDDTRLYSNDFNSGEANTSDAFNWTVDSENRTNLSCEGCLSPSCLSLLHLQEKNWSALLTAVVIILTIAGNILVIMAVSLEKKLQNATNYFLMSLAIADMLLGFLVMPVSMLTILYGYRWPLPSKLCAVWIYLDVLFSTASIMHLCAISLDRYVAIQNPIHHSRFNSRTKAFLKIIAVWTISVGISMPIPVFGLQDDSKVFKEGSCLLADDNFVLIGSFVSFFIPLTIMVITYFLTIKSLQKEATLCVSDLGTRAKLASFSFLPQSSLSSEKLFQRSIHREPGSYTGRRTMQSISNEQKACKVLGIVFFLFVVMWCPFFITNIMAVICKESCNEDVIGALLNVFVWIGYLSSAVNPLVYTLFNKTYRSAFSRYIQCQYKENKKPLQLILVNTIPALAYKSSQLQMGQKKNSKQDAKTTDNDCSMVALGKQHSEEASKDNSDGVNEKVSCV

Cl.c1ccc2c(c1)nnn2CCCCN1CCN(c2nsc3ccccc23)CC1
fraction unbound at 0.5 h, 1 µM [1]: 0.019
Tmax [2]: 1.3 h
Activity (Rattus norvegicus [3]): 89 mmHg
half-life [4]: 1.89 h
inhibition [5]: 43.7%
Tmax [6]: 1 h
CL/F [7]: 388 mL/min
fraction unbound at 0.5 h, 1 µM [8]: 0.006
AUC(0-t) at 2184 h [9]: 7450 ng·h/mL
Tmax [10]: 1 h
AUC(0-t) at 24 h [11]: 344 ng·h/mL
Activity (Rattus norvegicus [12]): 80 mmHg
NOAEL at 2184 h [13]: 100 mg/kg
inhibition [14]: 99%
fraction unbound at 0.5 h, 10 µM [15]: 0.007
Activity [16]: ~ 3.3%
Activity (Rattus norvegicus [17]): 81 mmHg
CL/F [18]: 25 L/h
Activity (Rattus norvegicus [19]): Active
AUC(0-t) at 24 h [20]: 605 ng·h/mL
Activity (Rattus norvegicus [21]): 85 mmHg
Activity (Rattus norvegicus [22]): 91 mmHg
fraction unbound at 0.5 h, 10 µM [23]: 0.004
Drug metabolism [24]: Metabolite_Detected
Tmax [25]: 0.65 h
Vd/F [26]: 78.9 L
AUC(0-t) at 24 h [27]: 44.5 ng·h/mL
Activity (Rattus norvegicus [28]): 89 mmHg
Cmax [29]: 1080 ng/mL
Activity [30]: Non-Toxic
Stability [31]: Stable
AUC(0-t) at 24 h [32]: 318 ng·h/mL
AUC(0-t) at 2184 h [33]: 4790 ng·h/mL
remaining at 2 h, 10 µM [34]: 21.1%
Activity [35]: Non-Toxic
